Literature values as cited in paper PMC8549773 (Chemical Science, 2021).

Tested on: GCase
Conditions: administered to rats

**Q.** With `OC[C@H]1O[C@@H](F)[C@H](F)[C@@H](O)[C@@H]1O` [2FGlcF, 2-deoxy-2-fluoro-β-D-glucosyl fluoride] as the compound, how does the “GCase inactivation in organs” value read?
**A.** The value was “inactivates GCase in all organs, including the brain”.
